# According to the PolyMetriX glass transition set:
# ± gives the standard deviation of the reports.
row,glass transition temperature [°C],SMILES
1,124.00,*C(=O)c1ccc(Oc2ccc(C(C)(C)c3ccc(Oc4ccc(*)s4)cc3)cc2)s1 (repeat unit)
2,237.50 ± 15,*c1ccc(Oc2ccc(C(C)(C)c3ccc(Oc4ccc(N5C(=O)c6ccc(-c7ccc8c(c7)C(=O)N(*)C8=O)cc6C5=O)cc4)cc3)cc2)cc1 (repeat unit)
3,248.40,*Nc1ccc(NC(=O)c2cc(-c3ccc(C(=O)O)c(C(*)=O)c3)ccc2C(=O)O)cc1 (repeat unit)
4,424.00,*c1ccc(C(=O)c2ccc(-n3c(=O)c4cc5c(=O)n(*)c(=O)c5cc4c3=O)cc2)cc1 (repeat unit)
5,268.00,*CC(=O)Nc1ccc(NC(=O)COc2ccc3ccccc3c2Sc2c(O*)ccc3ccccc23)cc1 (repeat unit)
6,94.00,*O[Si](c1ccccc1)(c1ccccc1)c1ccc(-c2ccc([Si](*)(c3ccccc3)c3ccccc3)cc2)cc1 (repeat unit)
7,207.00,*Oc1ccc(C2(c3ccc(OC(=O)c4cccc(C(*)=O)c4)c(C)c3)CCC3CCCCC3C2)cc1C (repeat unit)
8,238.00,*C(=O)Nc1ccc(Oc2ccccc2-c2ccccc2Oc2ccc(NC(=O)c3ccc4c(c3)C(=O)N(c3ccc(Oc5ccc(Oc6ccc(N7C(=O)c8ccc(*)cc8C7=O)cc6)cc5)cc3)C4=O)cc2)cc1 (repeat unit)
9,196.00,*c1cc(Br)c(-c2c(Br)cc(N3C(=O)c4ccc(-c5ccc6c(c5)C(=O)N(*)C6=O)cc4C3=O)cc2C(=O)OCCCC)c(C(=O)OCCCC)c1 (repeat unit)
10,150.00,*CC(*)c1ccc(-c2cccc3nsnc23)cc1 (repeat unit)
11,44.00,*Oc1ccc(CC(NC(=O)CCc2ccc(OC(=O)CCCCCCCCC(*)=O)cc2)C(=O)OC(C)C)cc1 (repeat unit)
12,378.00,*c1c(C)cc(C)c(N2C(=O)c3ccc(Sc4ccc5c(c4)C(=O)N(*)C5=O)cc3C2=O)c1C (repeat unit)
13,258.50,*C(=O)c1cc(C(=O)c2ccc3c(c2)C(=O)N(c2ccc(Oc4ccc(N5C(=O)c6ccc(*)cc6C5=O)cc4)cc2)C3=O)cc(-c2ccccc2)c1 (repeat unit)
14,220.00,*Oc1c(-c2ccccc2)cc(*)cc1-c1ccccc1 (repeat unit)
15,249.00,*c1ccc(Oc2ccc(N3C(=O)c4ccc(Oc5ccc6cc(Oc7ccc8c(c7)C(=O)N(*)C8=O)ccc6c5)cc4C3=O)cc2)cc1 (repeat unit)
16,110.50,*CC(*)(CC(=O)Oc1ccc(OCC)cc1)C(=O)Oc1ccc(OCC)cc1 (repeat unit)
17,89.00,*CCCCCCCCCCCN1C(=O)c2ccc(-c3ccc(-c4ccc5c(c4)C(=O)N(*)C5=O)cc3)cc2C1=O (repeat unit)
18,46.00,*OC(=O)c1ccc(CCCCc2ccc(C(*)=O)cc2)cc1 (repeat unit)
19,285.00,*C(=O)c1ccc2c(c1)C(=O)N(c1c(C)cc(C(c3cccc(C(F)(F)F)c3)c3cc(C)c(N4C(=O)c5ccc(*)cc5C4=O)c(C)c3)cc1C)C2=O (repeat unit)
20,369.2 ± 6.7,*c1ccc(-c2ccc(-n3c(=O)c4cc5c(=O)n(*)c(=O)c5cc4c3=O)cc2C)c(C)c1 (repeat unit)
21,103.60,*CC(*)c1cc(C(=O)Oc2ccc(OCCCC)cc2)ccc1C(=O)Oc1ccc(OCCCC)cc1 (repeat unit)
22,283.00,*C(=O)Nc1ccc(C(c2ccc(NC(=O)c3ccc4c(c3)C(=O)N(c3ccc(Oc5cccc6c(Oc7ccc(N8C(=O)c9ccc(*)cc9C8=O)cc7)cccc56)cc3)C4=O)cc2)(C(F)(F)F)C(F)(F)F)cc1 (repeat unit)
23,230.00,*Oc1ccc(NC(=O)c2cc(C(=O)Nc3ccc(*)cc3)cc(C(F)(F)C(F)(F)C(F)(F)C(F)(F)C(F)(F)C(F)(F)C(F)(F)C(F)(F)F)c2)cc1 (repeat unit)
24,166.00,*Oc1ccc(C2(c3ccc(OC(=O)CCCCC(*)=O)cc3)c3ccccc3-c3ccccc32)cc1 (repeat unit)
25,214.00,*Oc1ccc(S(=O)(=O)c2ccc(Oc3ccc(-c4ccc(-c5ccc(*)c(C(F)(F)F)c5)cc4)cc3C(F)(F)F)cc2)cc1 (repeat unit)
26,38.00,*O[Si](*)(C)CCCOc1ccc(-c2ccc(C#N)cc2)cc1 (repeat unit)
27,244.00,*c1ccc2c(c1)C(=O)N(c1cccc(Oc3cccc(N4C(=O)c5ccc(C(*)(C(F)(F)F)C(F)(F)F)cc5C4=O)c3)c1)C2=O (repeat unit)

# Further lines, the compound ahead of its results:
row,SMILES,glass transition temperature [°C]
1,*CCN(*)C(=O)c1cc(F)cc(F)c1 (repeat unit),106.00
2,*c1ccc(-c2nc3cc(Oc4ccc(NC(=O)c5ccc6c(c5)C(=O)N(c5ccc(C(c7ccc(N8C(=O)c9ccc(C(=O)Nc%10ccc(Oc%11ccc%12nc(-c%13ccccc%13)c(*)nc%12c%11)cc%10)cc9C8=O)cc7)(C(F)(F)F)C(F)(F)F)cc5)C6=O)cc4)ccc3nc2-c2ccccc2)cc1 (repeat unit),293.00
3,*Oc1ccc(C(C)(C)c2ccc(Oc3ccc4c(=O)n5c6cc(Oc7ccc8c(c7)nc7c9ccc(*)c%10cccc(c(=O)n87)c%109)ccc6nc5c5cccc3c45)cc2)cc1 (repeat unit),334.00
4,*O[Si](*)(C)CC (repeat unit),-133.00
5,*c1ccc(Oc2ccc(C(C)(C)c3ccc(Oc4ccc(N5C(=O)c6ccc(Oc7ccccc7Oc7ccc8c(c7)C(=O)N(*)C8=O)cc6C5=O)cc4C(F)(F)F)cc3)cc2)c(C(F)(F)F)c1 (repeat unit),192.00
6,*CCOCCOCCOCCOCCOC(=O)CCSCCC(=O)O* (repeat unit),-39.00
7,*CCCCCCOC(=O)CCCCCCCCCCCCCCCCCCC(=O)OCCCCCCN1C(=O)c2ccc(S(=O)(=O)c3ccc4c(c3)C(=O)N(*)C4=O)cc2C1=O (repeat unit),19.00
8,*/C=C/c1cccc(/C=C/[Si](C)(CCC(F)(F)F)c2cccc([Si](*)(C)CCC(F)(F)F)c2)c1 (repeat unit),9.50
9,*CC(*)(C)c1ccc(C)cc1 (repeat unit),176.00
10,*CC1CCCC(CNC(=O)c2cc(C(=O)N*)cc(C(C)(C)C)c2)C1 (repeat unit),200.00
11,*CCCCCCCOC(=O)c1ccc(C(=O)O*)cc1 (repeat unit),-1.00
12,*CCCCCCOC(=O)c1cccc(C(=O)O*)c1 (repeat unit),5.50
13,*c1cc(C(c2ccc(OCc3cc(OCCN(C)c4ccc(/C=C/C5=CC(=C(C#N)C#N)CC(C)(C)C5)cc4)cc(OCCN(C)c4ccc(/C=C/C5=CC(=C(C#N)C#N)CC(C)(C)C5)cc4)c3)c(N3C(=O)c4ccc(Oc5ccc6c(c5)C(=O)N(*)C6=O)cc4C3=O)c2)(C(F)(F)F)C(F)(F)F)ccc1OCc1cc(OCCN(C)c2ccc(/C=C/C3=CC(=C(C#N)C#N)CC(C)(C)C3)cc2)cc(OCCN(C)c2ccc(/C=C/C3=CC(=C(C#N)C#N)CC(C)(C)C3)cc2)c1 (repeat unit),178.00
14,*c1ccc(Oc2ccc(C3(c4ccc(Oc5ccc(N6C(=O)c7ccc(Oc8ccc(C9(c%10ccc(Oc%11ccc%12c(c%11)C(=O)N(*)C%12=O)cc%10)CCCCCCCCCCC9)cc8)cc7C6=O)cc5)cc4)C4CC5CC(C4)CC3C5)cc2)cc1 (repeat unit),262.00
15,*CC(*)CNc1ccc([N+](=O)[O-])c(C(F)(F)F)c1 (repeat unit),153.00
16,*OP(=O)(Oc1ccc(OC)cc1)Oc1ccc(S(=O)(=O)c2ccc(*)cc2)cc1 (repeat unit),81.00

row,SMILES,glass transition temperature [°C]
1,*c1ccc(Oc2ccc(C(=O)c3ccc(Oc4ccc(C(=O)c5ccc(Oc6ccc(-c7nc(-c8ccc(-c9nc(*)c(-c%10ccccc%10)[nH]9)cc8)[nH]c7-c7ccccc7)cc6)cc5)cc4)cc3)cc2)cc1 (repeat unit),245.00
2,*c1ccc(Oc2ccc(C(=O)c3cccc(C(=O)c4ccc(Oc5ccc(N6C(=O)c7ccc(Oc8ccc9c(c8)C(=O)N(*)C9=O)cc7C6=O)cc5)cc4)n3)cc2)cc1 (repeat unit),208.60
3,*CCC[Si](*)(C)O[Si](C)(C)CCCOc1ccc(C#N)cc1 (repeat unit),-45.50
4,*CC(*)C(=O)c1ccc(OC)cc1 (repeat unit),46.00
5,*CC(CO*)(CS(=O)(=O)CC)CS(=O)(=O)CC (repeat unit),84.00
6,*CC(*)C(=O)OCF (repeat unit),15.00
7,*CC(*)C(=O)OCC(F)(F)C(F)(F)OC(F)(F)C(F)(F)C(F)(F)C(F)(F)F (repeat unit),-68.00
8,*c1cc(-c2nc3ccccc3oc2=O)cc(-n2c(=O)c3cc4c(=O)n(*)c(=O)c4cc3c2=O)c1 (repeat unit),130.00
9,*CCCCCOC(=O)CCCCC(=O)O* (repeat unit),-69.00
10,*CC(*)SCCCC (repeat unit),-20.00
11,*c1ccc(C(=O)OCCCCCCCCCCOc2ccc(/C=C3\CCCC/C(=C\c4ccc(OCCCCCCCCCCOC(=O)c5ccc(-c6nnc(*)o6)cc5)cc4)C3=O)cc2)cc1 (repeat unit),74.00
12,*c1ccc(Oc2ccc(C(c3ccc(Oc4ccc(-c5nc(-c6ccccn6)nnc5*)cc4)cc3)(C(F)(F)F)C(F)(F)F)cc2)cc1 (repeat unit),224.00
13,*c1ccc(Oc2ccc(C(=O)c3cccc(C(=O)c4ccc(Oc5ccc(-c6nc(-c7ccc(-c8nc(*)c(-c9ccccc9)[nH]8)cc7)[nH]c6-c6ccccc6)cc5)cc4)c3)cc2)cc1 (repeat unit),270.00
14,*/C=C(\C#N)C(=O)NC1CCCCC1NC(=O)/C(C#N)=C/c1ccc(/C=C/c2ccc(N(c3ccccc3)c3ccc(N(c4ccccc4)c4ccc(/C=C/c5ccc(*)s5)cc4)cc3)cc2)s1 (repeat unit),240.00
15,*c1ccc(Oc2ccc(C3(c4ccc(Oc5ccc(N6C(=O)CC(=O)N(*)C6=S)cc5)cc4)c4ccccc4-c4ccccc43)cc2)cc1 (repeat unit),175.00
16,*CC(C)C(=O)N* (repeat unit),96.00
